# Assay results taken from US12084473B2, “β-D-2′-deoxy-2′-α-fluoro-2′-β-C-substituted-2-modified-N6-substituted purine nucleotides for HCV treatment” (Atea Pharmaceuticals, Inc., priority 2015, dated 2024).
# Where two headings read alike, the source gives them in different places.
# What was measured:
# [1] = Cytotoxicity by XTT staining in replicon cells; settings: human
# Protocol: (§1) The plates were cultured for 24 hours prior to the addition of compounds. Six serial one half log dilutions of the test articles (high test concentration of 100.0 μM or high test concentration of 1.0 μM) and human interferon-alpha2b (high test 10.0 U/ml) were prepared in cell culture medium and added to the cultured cells in triplicate wells for each dilution. Six wells in the test plates received medium alone as an untreated control. Following 72 hours of culture in the presence of compound, one of the plates was used for the determination of cytotoxicity by staining with XTT and the other for antiviral efficacy by determination of luciferase reporter activity. Cytotoxicity and efficacy data were collected and imported into a customized Excel workbook for determination of the TC50 and EC50 values. […] The y-axis is the percent of virus control and the x-axis is the concentration of drug in μM. […] The y-axis is the percent of virus control and the x-axis is the concentration of drug in M.
# [2] = tested on: HCV genotype 1b luciferase reporter replicon; assay: microbe, parasite or virus in culture; format: cell-based; settings: Hepatitis C virus, HuH-7-Luc/Neo-ET, 72 h, read-out: HCV Replicon EC50/EC95: EC50
# [3] = tested on: HCV genotype 1b luciferase reporter replicon; assay: microbe, parasite or virus in culture; format: cell-based; settings: for EC95 / EC50: Hepatitis C virus; for EC95: Huh-7 luc/neo ET cells, 72 hours, luciferase, read-out: HCV Replicon EC50/EC95: EC95; for EC50: read-out: EC50 in a replicon assay
# Protocol: as §1
# [4] = tested on: micro-patterned human hepatocyte co-cultures; assay: Human Hepatocyte Co-Cultures (HepatoPac): cytotoxicity and hepatocyte health; format: cell-based; settings: for IC50: Homo sapiens, Hepatocyte
# Protocol: Cytotoxicity and hepatocyte health were assessed in triplicate by measuring ALT leakage, urea production, albumin secretion and cellular ATP contents in micro-patterned human hepatocyte co-cultures (HepatoPac®, Hepregen Corporation) prepared by seeding cryopreserved human hepatocytes (single donor) and 3T3 J2 mouse fibroblasts in microtiter plates according to procedures established by Hepregen. Culture media was replaced with fresh media containing TA, test article, (0, 1, 10 or 30 μM) every 2 or 3 days through day 16. […] Cellular ATP levels were measured on days 9 and 21. ATP signals in stromal-only control cultures (murine 3T3 fibroblasts) were subtracted from those of human HepatoPac co-cultures to obtain hepatocyte-specific effects. See, Table 4, 5 and 6 below.
Structure (SMILES),CC50 at 72 h [1] [nM],EC50 [2] [nM],EC95 [3] [nM],other results
"CC(C)OC(=O)[C@H](C)NP(=O)(OCC1O[C@@H](n2cnc3c(N(C)C)nc(N)nc32)[C@](C)(F)[C@@H]1O)Oc1ccccc1 (mixture of isomers) [Compound 7, isopropyl ((((R,S)-(2R,3R,4R,5R)-5-(2-amino-6-(dimethylamino)-9H-purin-9-yl)-4-fluoro-3-hydroxy-4-methyltetrahydrofuran-2-yl)methoxy)-phenoxy-phosphoryl)-L-alaninate]",> 100000,12.1,71,"EC50 [3]: 12 nM; Fold increase in activity compared to parent nucleoside ([3]; Table 7): >890; fold increase in activity (versus parent nucleoside) ([3]; listed as stabilized phosphate prodrug (phosphoramidate) of β-D-2′-deoxy-2′-α-fluoro-2′-β-): > 1,300; fold increase in activity (versus parent nucleoside) ([3]; listed as stabilized racemic phosphate prodrug (phosphoramidate) of β-D-2′-deoxy-2′-α-fluo): > 890"
"CNc1nc(N)nc2c1ncn2[C@@H]1O[C@H](CO)[C@@H](O)[C@@]1(C)F [Compound 4, (2R,3R,4R,5R)-5-(2-amino-6-(methylamino)-9H-purin-9-yl)-4-fluoro-2-(hydroxymethyl)-4-methyltetrahydrofuran-3-ol]",> 100000,15700,–,EC50 ([3]; parent nucleosides): 15700 nM
"CC(C)OC(=O)[C@H](C)N[P@@](=O)(OCC1O[C@@H](n2cnc3c(N(C)C)nc(N)nc32)[C@](C)(F)[C@@H]1O)Oc1ccccc1 (stereo partly drawn) [Compound 26, isopropyl ((((R)-(2R,3R,4R,5R)-5-(2-amino-6-(dimethylamino)-9H-purin-9-yl)-4-fluoro-3-hydroxy-4-methyltetrahydrofuran-2-yl)methoxy)-phenoxy-phosphoryl)-L-alaninate]",> 100000,35.1,57,–
"C#C[C@@]1(F)[C@H](O)C(COP(=O)(N[C@@H](C)C(=O)OC(C)C)Oc2ccccc2)O[C@H]1n1cnc2c(N(C)C3CC3)nc(N)nc21 (stereo partly drawn) [Compound 47, isopropyl ((((R,S)-(2R,3R,4R,5R)-5-(2-amino-6-(N-methylcyclopropylamino)-9H-purin-9-yl)-4-fluoro-3-hydroxy-4-ethynyltetrahydrofuran-2-yl)methoxy)-phenoxy-phosphoryl)-L-alaninate]",1680,338,1720,–
"C#C[C@@]1(F)[C@H](O)C(COP(=O)(N[C@@H](C)C(=O)OC(C)C)Oc2ccccc2)O[C@H]1n1cnc2c(NC)nc(N)nc21 (stereo partly drawn) [Compound 46, isopropyl ((((R,S)-(2R,3R,4R,5R)-5-(2-amino-6-methylamino-9H-purin-9-yl)-4-fluoro-3-hydroxy-4-ethynyltetrahydrofuran-2-yl)methoxy)-phenoxy-phosphoryl)-L-alaninate]",> 100000,224,961,–
"CCCN(C)c1nc(N)nc2c1ncn2[C@@H]1OC(COP(=O)(N[C@@H](C)C(=O)OC(C)C)Oc2ccccc2)[C@@H](O)[C@@]1(C)F (stereo partly drawn) [Compound 20, isopropyl ((((R,S)-(2R,3R,4R,5R)-5-(2-amino-6-(N-methyl-propylamino)-9H-purin-9-yl)-4-fluoro-3-hydroxy-4-methyltetrahydrofuran-2-yl)methoxy)-phenoxy-phosphoryl)-L-alaninate]",> 100000,73,315,–
"C#C[C@@]1(F)[C@H](O)C(COP(=O)(N[C@@H](C)C(=O)OC(C)C)Oc2ccccc2)O[C@H]1n1cnc2c(N(C)C)nc(N)nc21 (stereo partly drawn) [Compound 45, isopropyl ((((R,S)-(2R,3R,4R,5R)-5-(2-amino-6-dimethylamino-9H-purin-9-yl)-4-fluoro-3-hydroxy-4-ethynyltetrahydrofuran-2-yl)methoxy)-phenoxy-phosphoryl)-L-alaninate]",680,160,876,–
C#C[C@@]1(F)[C@H](O)[C@@H](CO)O[C@H]1n1cnc2c(N(C)C3CC3)nc(N)nc21 [Compound 43],21600,6430,24700,–
"CCCN(C)c1nc(N)nc2c1ncn2[C@@H]1O[C@H](CO)[C@@H](O)[C@@]1(C)F [Compound 19, (2R,3R,4R,5R)-5-(2-amino-6-(N-methyl-propylamino)-9H-purin-9-yl)-4-fluoro-2-(hydroxymethyl)-4-methyltetrahydrofuran-3-ol]",> 100000,7470,–,–
CCOc1nc(N)nc2c1ncn2[C@@H]1O[C@@H]2CO[P@](=O)(OC(C)C)O[C@H]2[C@@]1(C)F,> 100000,45,259,–
C#C[C@@]1(F)[C@H](O)[C@@H](CO)O[C@H]1n1cnc2c(N(C)C)nc(N)nc21 [Compound 41],21800,508,25100,–
"CN(c1nc(N)nc2c1ncn2[C@@H]1O[C@H](CO)[C@@H](O)[C@@]1(C)F)C1CC1 [Compound 8, (2R,3R,4R,5R)-5-(2-Amino-6-(N-methyl-cyclopropylamino)-9H-purin-9-yl)-4-fluoro-2-(hydroxymethyl)-4-methyltetrahydrofuran-3-ol]",> 100000,5560,–,–
C[C@@]1(F)[C@H](O)C(CO)O[C@H]1n1cnc2c(N)nc(N)nc21 (some centres unmarked),> 100000,6700,–,–
"CNc1nc(NC(=O)C(C)C)nc2c1ncn2[C@@H]1O[C@H](CO)[C@@H](O)[C@@]1(C)F [Compound 15, (2R,3R,4R,5R)-5-(2-isobutyramido-6-methylamino-9H-purin-9-yl)-4-fluoro-2-(hydroxymethyl)-4-methyltetrahydrofuran-3-ol]",> 100000,> 100000,–,–
CC(C)OC(=O)[C@H](C)N[P@@](=O)(OCC1O[C@@H](n2ccc(=O)[nH]c2=O)[C@](C)(F)[C@@H]1O)Oc1ccccc1 (some centres unmarked),> 100000,52,310,–
"CCN(C)c1nc(N)nc2c1ncn2[C@@H]1OC(COP(=O)(N[C@@H](C)C(=O)OC(C)C)Oc2ccccc2)[C@@H](O)[C@@]1(C)F (stereo partly drawn) [Compound 18, isopropyl ((((R,S)-(2R,3R,4R,5R)-5-(2-amino-6-(N-methyl-ethylamino)-9H-purin-9-yl)-4-fluoro-3-hydroxy-4-methyltetrahydrofuran-2-yl)methoxy)-phenoxy-phosphoryl)-L-alaninate]",90000,48,219,–
"CNc1nc(NC(=O)C(C)C)nc2c1ncn2[C@@H]1OC(COP(=O)(N[C@@H](C)C(=O)OC(C)C)Oc2ccccc2)[C@@H](O)[C@@]1(C)F (stereo partly drawn) [Compound 16, isopropyl ((((R,S)-(2R,3R,4R,5R)-5-(2-isobutyramido-6-methylamino-9H-purin-9-yl)-4-fluoro-3-hydroxy-4-methyltetrahydrofuran-2-yl)methoxy)-phenoxy-phosphoryl)-L-alaninate]",> 100000,576,3690,–
COc1nc(N)nc2c1ncn2[C@@H]1O[C@H](COP(=O)(N[C@@H](C)C(=O)OCC(C)(C)C)Oc2cccc3ccccc23)[C@@H](O)[C@@]1(C)O (some centres unmarked) [INX-189],–,–,–,"IC50 ([4]; 48 h, Table 5, Day 2, read-out: Effect on Albumin Secretion, 50% Inhibitory Concentration (IC50)): 13600 nM; IC50 ([4]; 48 h, Table 6, Day 2, read-out: Effect on Albumin Secretion, 50% Inhibitory Concentration (IC50)): > 30000 nM; IC50 ([4]; 120 h, Table 5, Day 5, read-out: Effect on Albumin Secretion, 50% Inhibitory Concentration (IC50)): 3100 nM; IC50 ([4]; 120 h, Table 6, Day 5, read-out: Effect on Albumin Secretion, 50% Inhibitory Concentration (IC50)): 4200 nM; IC50 ([4]; 168 h, Table 5, Day 7, read-out: Effect on Albumin Secretion, 50% Inhibitory Concentration (IC50)): 3200 nM; IC50 ([4]; 168 h, Table 6, Day 7, read-out: Effect on Albumin Secretion, 50% Inhibitory Concentration (IC50)): 1800 nM; IC50 ([4]; 216 h, Day 9, read-out: Effect on Cellular ATP Concentrations, 50% Inhibitory Concentration (IC50)): 8100 nM; IC50 ([4]; 216 h, Table 5, Day 9, read-out: Effect on Albumin Secretion, 50% Inhibitory Concentration (IC50)): 2400 nM; IC50 ([4]; 216 h, Table 6, Day 9, read-out: Effect on Albumin Secretion, 50% Inhibitory Concentration (IC50)): 1800 nM; IC50 ([4]; 288 h, Table 6, Day 12, read-out: Effect on Albumin Secretion, 50% Inhibitory Concentration (IC50)): 1300 nM; IC50 ([4]; 384 h, Table 6, Day 16, read-out: Effect on Albumin Secretion, 50% Inhibitory Concentration (IC50)): < 1000 nM; IC50 ([4]; 504 h, Day 21, read-out: Effect on Cellular ATP Concentrations, 50% Inhibitory Concentration (IC50)): 100 nM; IC50 ([4]; 504 h, Table 6, Day 21, read-out: Effect on Albumin Secretion, 50% Inhibitory Concentration (IC50)): < 1000 nM; cytotoxicity to human co-cultured hepatocytes (in words) ([4]; text b588): highly cytotoxic"
"CCN(C)c1nc(N)nc2c1ncn2[C@@H]1O[C@H](CO)[C@@H](O)[C@@]1(C)F [Compound 17, (2R,3R,4R,5R)-5-(2-amino-6-(N-methyl-ethylamino)-9H-purin-9-yl)-4-fluoro-2-(hydroxymethyl)-4-methyltetrahydrofuran-3-ol]",> 100000,11500,65400,–
